We go through eight compounds from ChEMBL document CHEMBL5465560, “Selectivity Literature for EUbOPEN Chemogenomic Library” (2024).

The target in data set [1] is T1, Dual specificity mitogen-activated protein kinase kinase 5 (Homo sapiens) (UniProt Q13163).
T1 sequence (whole entry): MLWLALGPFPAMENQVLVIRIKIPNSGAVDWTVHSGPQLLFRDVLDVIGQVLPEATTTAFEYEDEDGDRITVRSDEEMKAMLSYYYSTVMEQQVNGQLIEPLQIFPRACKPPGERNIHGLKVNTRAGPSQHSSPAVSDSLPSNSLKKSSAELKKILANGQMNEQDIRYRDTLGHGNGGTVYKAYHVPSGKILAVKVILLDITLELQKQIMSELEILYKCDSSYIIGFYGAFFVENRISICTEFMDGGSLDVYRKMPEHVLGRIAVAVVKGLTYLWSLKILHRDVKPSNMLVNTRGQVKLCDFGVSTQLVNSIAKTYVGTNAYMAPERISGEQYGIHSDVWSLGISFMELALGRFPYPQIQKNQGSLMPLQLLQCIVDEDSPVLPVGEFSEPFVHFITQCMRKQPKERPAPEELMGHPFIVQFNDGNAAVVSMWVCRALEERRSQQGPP
As to the kind of experiment: Selectivity interaction (Kinase panel (KiNativ target engagement assay in Jurkat cells)) EUB0001635a MAP2K5. The following applies: Selectivity number of off-targets 0.0, Selectivity number of targets 233.0, Source Knowledge https://www.sciencedirect.com/science/article/pii/S2451945619300674?via%3Dihub, at 1 µM. The data set is classed as cell-based.

Data set [2] addresses Adenosine receptor A2a (Homo sapiens, UniProt P29274). As to the kind of experiment: Selectivity interaction (Panel of non-epigenetic targets (kinases, GPCRs, ion channels, and transporters, Eurofins) ) EUB0000271b ADORA2A. Conditions: at 1 µM.
The target of data set [3] is Leukocyte tyrosine kinase receptor (Homo sapiens, UniProt P29376). Conditions: at 10 µM.
The target of data set [4] is Protein-tyrosine kinase 6 (Homo sapiens, UniProt Q13882). As to the kind of experiment: Selectivity interaction (KinomeScan (DiscoverX)) EUB0000655a PTK6. The following applies: at 10 µM.
Data set [5] deals with Tyrosine-protein kinase receptor UFO (Homo sapiens) (UniProt P30530). Conditions: at 10 µM.
The target in data set [6] is Mitogen-activated protein kinase kinase kinase kinase 5 (Homo sapiens) (UniProt Q9Y4K4). Conditions: at 10 µM.
The subject of data set [7] is Mast/stem cell growth factor receptor Kit (Homo sapiens), P10721 [D816V]. As to the kind of experiment: (§1) Selectivity interaction (KinomeScan (DiscoverX)) EUB0000695a KIT. Conditions: at 100 nM.
Data set [8] deals with Mast/stem cell growth factor receptor Kit (Homo sapiens), P10721 [L576P]. Described as §1. Conditions: at 100 nM.
Data set [9] deals with Mast/stem cell growth factor receptor Kit (Homo sapiens), P10721 [A829P]. The description is as §1. The following applies: at 100 nM.
Data set [10] deals with Mast/stem cell growth factor receptor Kit (Homo sapiens), P10721 [V559D]. Described as §1. The following applies: at 100 nM.
Data set [11] has as its target Mast/stem cell growth factor receptor Kit (Homo sapiens, UniProt P10721). The description is as §1. The following applies: at 100 nM.
Data set [12] deals with Mast/stem cell growth factor receptor Kit (Homo sapiens), P10721 [V559D,V654A]. Described as §1. Conditions: at 100 nM.
Data set [13] concerns Mast/stem cell growth factor receptor Kit (Homo sapiens), P10721 [D816H]. The description is as §1. Conditions: at 100 nM.
The test system of data set [14] is Mast/stem cell growth factor receptor Kit (Homo sapiens), P10721 [V559D,T670I]. The description is as §1. The following applies: at 100 nM.
Data set [15] has as its target KCNE1 (Homo sapiens, UniProt P15382). As to the kind of experiment: Selectivity interaction (Panel of kinases, GPCRs, ion channels and transporters (enzymatic assay)) EUB0000223bCl KCNE1.
The target of data set [16] is T2, MAP/microtubule affinity-regulating kinase 4 (Homo sapiens) (UniProt Q96L34).
T2 sequence (whole entry): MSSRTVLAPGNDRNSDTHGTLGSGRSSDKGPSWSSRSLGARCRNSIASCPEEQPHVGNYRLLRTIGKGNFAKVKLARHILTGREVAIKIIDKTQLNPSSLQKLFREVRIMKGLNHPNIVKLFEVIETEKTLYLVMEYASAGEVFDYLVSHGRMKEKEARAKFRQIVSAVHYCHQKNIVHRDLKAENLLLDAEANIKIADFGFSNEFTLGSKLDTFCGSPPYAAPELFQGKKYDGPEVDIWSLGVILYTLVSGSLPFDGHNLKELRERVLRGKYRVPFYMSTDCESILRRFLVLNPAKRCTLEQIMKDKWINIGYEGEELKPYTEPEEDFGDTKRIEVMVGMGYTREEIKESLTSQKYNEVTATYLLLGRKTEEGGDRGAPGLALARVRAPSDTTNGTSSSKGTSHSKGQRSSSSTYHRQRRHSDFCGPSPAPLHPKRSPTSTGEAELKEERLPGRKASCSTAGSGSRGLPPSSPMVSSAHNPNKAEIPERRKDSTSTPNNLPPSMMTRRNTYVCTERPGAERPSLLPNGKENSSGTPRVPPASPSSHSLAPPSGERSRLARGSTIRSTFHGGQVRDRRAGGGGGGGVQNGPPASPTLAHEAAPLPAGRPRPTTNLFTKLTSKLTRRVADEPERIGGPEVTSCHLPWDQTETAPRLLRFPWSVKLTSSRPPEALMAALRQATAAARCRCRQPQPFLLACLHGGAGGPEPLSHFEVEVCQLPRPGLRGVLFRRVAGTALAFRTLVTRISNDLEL
As to the kind of experiment: Selectivity interaction (Kinase panel (DSF assay)) EUB0001559a MARK4. On the technique in general: In DSF a fluorescence change marks the thermal transition of the protein.

Sequence of Leukocyte tyrosine kinase receptor (P29376 whole entry): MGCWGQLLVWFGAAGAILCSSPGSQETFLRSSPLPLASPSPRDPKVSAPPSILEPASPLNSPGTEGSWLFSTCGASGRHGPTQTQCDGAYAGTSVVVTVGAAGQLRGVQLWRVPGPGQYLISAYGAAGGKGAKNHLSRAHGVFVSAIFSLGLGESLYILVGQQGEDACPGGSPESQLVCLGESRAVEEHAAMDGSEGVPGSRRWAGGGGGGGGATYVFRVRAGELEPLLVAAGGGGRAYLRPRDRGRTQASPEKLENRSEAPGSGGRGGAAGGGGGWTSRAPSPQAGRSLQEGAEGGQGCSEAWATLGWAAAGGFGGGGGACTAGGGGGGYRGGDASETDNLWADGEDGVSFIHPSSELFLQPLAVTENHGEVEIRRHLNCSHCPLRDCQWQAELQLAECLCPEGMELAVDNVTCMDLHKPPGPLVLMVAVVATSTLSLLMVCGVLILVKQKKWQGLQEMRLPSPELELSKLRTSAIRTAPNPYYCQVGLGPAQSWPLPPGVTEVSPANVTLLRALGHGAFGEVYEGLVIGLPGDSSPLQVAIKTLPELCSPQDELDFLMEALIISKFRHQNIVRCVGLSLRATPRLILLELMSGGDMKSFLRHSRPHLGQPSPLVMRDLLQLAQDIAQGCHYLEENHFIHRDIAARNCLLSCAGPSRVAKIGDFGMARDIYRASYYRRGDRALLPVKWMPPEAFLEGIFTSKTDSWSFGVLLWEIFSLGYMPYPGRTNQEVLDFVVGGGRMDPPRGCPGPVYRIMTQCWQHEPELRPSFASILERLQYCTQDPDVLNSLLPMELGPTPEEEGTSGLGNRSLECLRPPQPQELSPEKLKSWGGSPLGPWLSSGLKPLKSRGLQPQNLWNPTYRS
Sequence of Mitogen-activated protein kinase kinase kinase kinase 5 (Homo sapiens) (Q9Y4K4 whole entry, looked up): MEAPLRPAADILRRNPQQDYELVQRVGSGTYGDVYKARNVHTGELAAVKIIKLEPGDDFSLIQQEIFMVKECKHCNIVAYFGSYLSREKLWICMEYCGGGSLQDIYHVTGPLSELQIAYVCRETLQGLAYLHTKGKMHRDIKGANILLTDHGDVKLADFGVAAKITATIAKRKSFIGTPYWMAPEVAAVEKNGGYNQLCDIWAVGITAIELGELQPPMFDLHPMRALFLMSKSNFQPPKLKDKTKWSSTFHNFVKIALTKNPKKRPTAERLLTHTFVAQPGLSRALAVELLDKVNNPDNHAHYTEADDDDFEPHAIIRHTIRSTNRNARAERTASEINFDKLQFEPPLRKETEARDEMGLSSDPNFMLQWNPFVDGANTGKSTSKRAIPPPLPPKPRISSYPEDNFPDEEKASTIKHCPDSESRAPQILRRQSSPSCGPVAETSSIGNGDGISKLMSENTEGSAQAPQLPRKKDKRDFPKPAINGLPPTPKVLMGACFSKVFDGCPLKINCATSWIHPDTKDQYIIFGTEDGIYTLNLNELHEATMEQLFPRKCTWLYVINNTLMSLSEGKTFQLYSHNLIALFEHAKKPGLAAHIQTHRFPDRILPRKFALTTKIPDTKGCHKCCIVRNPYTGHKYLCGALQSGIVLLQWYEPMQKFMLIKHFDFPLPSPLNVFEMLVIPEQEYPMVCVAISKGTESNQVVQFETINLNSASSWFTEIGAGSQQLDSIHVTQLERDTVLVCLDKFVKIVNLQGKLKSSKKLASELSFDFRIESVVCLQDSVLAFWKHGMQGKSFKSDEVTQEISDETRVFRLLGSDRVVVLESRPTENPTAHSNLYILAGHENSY
Sequence of Mast/stem cell growth factor receptor Kit (Homo sapiens), P10721 [V559D,V654A] (P10721 whole entry V559D/V654A): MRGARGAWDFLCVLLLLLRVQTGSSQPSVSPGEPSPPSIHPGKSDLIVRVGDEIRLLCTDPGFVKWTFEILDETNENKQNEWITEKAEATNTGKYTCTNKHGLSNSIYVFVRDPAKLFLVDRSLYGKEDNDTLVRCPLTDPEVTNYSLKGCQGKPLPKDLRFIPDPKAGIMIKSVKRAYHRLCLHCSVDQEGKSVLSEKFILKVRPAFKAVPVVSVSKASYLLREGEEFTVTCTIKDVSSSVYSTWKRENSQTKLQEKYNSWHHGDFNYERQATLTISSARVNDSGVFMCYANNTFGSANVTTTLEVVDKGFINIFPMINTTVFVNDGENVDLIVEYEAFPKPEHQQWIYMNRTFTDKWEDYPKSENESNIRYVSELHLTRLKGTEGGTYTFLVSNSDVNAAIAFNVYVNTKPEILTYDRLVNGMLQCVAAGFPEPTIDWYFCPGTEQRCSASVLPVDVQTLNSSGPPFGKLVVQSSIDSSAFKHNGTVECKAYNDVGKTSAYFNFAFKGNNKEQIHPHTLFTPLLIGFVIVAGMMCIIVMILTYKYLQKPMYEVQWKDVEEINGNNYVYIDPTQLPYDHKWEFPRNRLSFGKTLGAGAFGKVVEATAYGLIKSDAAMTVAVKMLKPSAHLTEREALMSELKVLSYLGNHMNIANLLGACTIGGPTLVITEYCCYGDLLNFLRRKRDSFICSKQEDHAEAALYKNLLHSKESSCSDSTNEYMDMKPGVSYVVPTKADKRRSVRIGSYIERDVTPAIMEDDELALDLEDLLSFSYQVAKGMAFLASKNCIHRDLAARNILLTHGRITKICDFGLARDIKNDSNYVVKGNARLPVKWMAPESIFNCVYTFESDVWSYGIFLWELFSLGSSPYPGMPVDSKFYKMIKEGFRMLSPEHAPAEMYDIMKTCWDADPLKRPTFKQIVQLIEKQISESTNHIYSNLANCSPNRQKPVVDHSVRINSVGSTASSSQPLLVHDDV
Sequence of Tyrosine-protein kinase receptor UFO (Homo sapiens) (P30530 whole entry): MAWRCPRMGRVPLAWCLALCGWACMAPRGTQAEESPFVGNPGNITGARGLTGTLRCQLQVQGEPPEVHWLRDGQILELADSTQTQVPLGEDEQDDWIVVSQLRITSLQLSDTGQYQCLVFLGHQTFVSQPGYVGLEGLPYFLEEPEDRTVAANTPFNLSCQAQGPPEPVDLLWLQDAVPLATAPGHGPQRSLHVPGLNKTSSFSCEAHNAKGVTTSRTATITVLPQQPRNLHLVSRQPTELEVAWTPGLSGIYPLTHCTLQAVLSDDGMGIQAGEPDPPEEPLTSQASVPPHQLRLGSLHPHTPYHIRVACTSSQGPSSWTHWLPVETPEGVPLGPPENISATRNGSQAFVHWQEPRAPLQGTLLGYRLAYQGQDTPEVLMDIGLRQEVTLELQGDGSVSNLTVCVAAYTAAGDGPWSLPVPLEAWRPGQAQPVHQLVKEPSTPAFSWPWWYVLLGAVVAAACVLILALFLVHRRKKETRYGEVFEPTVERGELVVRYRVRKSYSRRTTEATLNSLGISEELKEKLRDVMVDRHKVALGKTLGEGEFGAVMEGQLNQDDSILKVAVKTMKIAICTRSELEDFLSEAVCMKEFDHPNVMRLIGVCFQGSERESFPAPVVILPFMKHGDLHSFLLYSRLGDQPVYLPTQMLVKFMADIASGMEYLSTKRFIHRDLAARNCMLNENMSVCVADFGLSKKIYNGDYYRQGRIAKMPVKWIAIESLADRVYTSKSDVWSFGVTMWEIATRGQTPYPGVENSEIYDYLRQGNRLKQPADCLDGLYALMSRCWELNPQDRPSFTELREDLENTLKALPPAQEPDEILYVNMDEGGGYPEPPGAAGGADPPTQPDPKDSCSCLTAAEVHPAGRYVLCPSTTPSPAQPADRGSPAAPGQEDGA
Sequence of Mast/stem cell growth factor receptor Kit (Homo sapiens), P10721 [D816H] (P10721 whole entry D816H): as the sequence (P10721 whole entry V559D/V654A) above, with D559V, A654V, D816H counted along it

With `C=CC(=O)Nc1ccc(C(=O)Nc2[nH]nc3c2CN(C(=O)N[C@H](CN(C)C)c2ccccc2)C3(C)C)cc1`, the % of engagement in [1] is 5.3%.
In the case of `Cc1cc(C)cc([C@@H]2c3cc(C)ccc3NC(=O)CN2C(=O)c2ccc(Br)s2)c1`, the % of inhibition in [2] turned out to be 2%.
As for `Cc1cc([C@@H](C)Nc2ccccc2C(=O)O)c2nc(N3CCOCC3)cc(=O)n2c1` [AZD-6482], in data set [3], the % of control is 95%.
The compound `CN(C)CCOc1ccc(-c2nc(-c3ccncc3)c(-c3ccc4c(c3)CC/C4=N\O)[nH]2)cc1` registered a % of control in data set [4] of 82%.
In the case of `CCN(CC)CCCCNc1ncc2cc(-c3cc(OC)cc(OC)c3)c(NC(=O)NC(C)(C)C)nc2n1`, the % of control in data set [5] and in data set [6] was 100% in each case.
For the compound `Cc1cc(F)c(C(=O)Nc2cccc(-c3nncn3C(C)C)n2)cc1-n1cnc(C2CC2)c1`, the % of control in data set [7] was 84%; in data set [8], 94%; in data set [9], 82%; in data set [10] it was 92%; in data set [11], 89%; in data set [12] it was 100%. Also, the % of control in [13] is 79%; in data set [14] it was 100%.
Compound `COc1cc(C(=O)N2CC[C@@H](O)[C@@H](N)C2)cc2nc(-c3cc4ccccc4n3CC3CC3)n(C)c12` showed an XC50 in data set [15] above 25.1 µM.
In the case of `CN(C(=O)c1cnn2cccnc12)c1cc2c(cc1N1CCOCC1)C(=O)N(C[C@@H](F)C(C)(C)O)C2`, in data set [16], the dTM came out at 0.9 K.
